Results published in publication PMC8174486, “Synthesis and preliminary structure-activity relationship study of 3-methylquinazolinone derivatives as EGFR inhibitors with enhanced antiproliferative activities against tumour cells” (Journal of Enzyme Inhibition and Medicinal Chemistry, 2021).

Experiments:
MCF-7 cells [1] = assay: MTT antiproliferative assay, MCF-7; type: cell-based; details: Homo sapiens, MCF7, mean ± SD of three replicates
Description: (§1) A431 (Human epidermoid carcinoma cell line) cell, A549 (Human non-small cell lung cancer cell line) cell, MCF-7 (Human breast adenocarcinoma cell line) cell, and NCI-H1975 (Human non-small cell lung cancer cell line) cell were purchased from the Shanghai Cell Bank of the Chinese Academy of Sciences. NRK-52E (Normal rat kidney cell line) cell was donated by Guizhou Medical University.
(§2) The IC50 value was determined from a sigmoid dose − response curve using Graph-Pad Prism (GraphPad Software, San Diego, CA).

NCI-H1975 cells = assay: MTT antiproliferative assay, NCI-H1975; type: cell-based; details: Homo sapiens, mean ± SD of three replicates
Description: as §1, §2

A431 cells = assay: MTT antiproliferative assay, A431; type: cell-based, human; details: mean ± SD of three replicates
Description: as §1, §2

[2] = Stability in mice plasma (HPLC); type: in vitro ADME; details: 37 °C, 60 min
Description: HPLC procedures and spectra
A 2.5 mL centrifuge tube was added 300 µL plasma derived from normal […] (7 weeks, male), and 30 µL compound A or compound 4d in ethanol (50 mM). The mixture was incubated at 37 °C for 60 min, and then treated with 300 µL of CH3CN, separated in centrifugation at 30000 rpm for 10 min. The supernatant was treated with the same procedure for another time and analyzed in HPLC using C18 column (4.6 mm x 250 mm) and mobile phase of CH3CN/H2O (90 : 10) with a flow rate of 1.5 mL/min.
Fig. S1 Metabolic stability in plasma of compound A
Fig. S2 Metabolic stability in plasma of compound 4d […]

A549 cells = assay: MTT antiproliferative assay, A549; type: cell-based; details: Homo sapiens, mean ± SD of three replicates
Description: as §1, §2

EGFR^wt-TK = biological target: T1, EGFR^wt-TK (Homo sapiens, UniProt P00533); assay: In vitro EGFR^wt-TK assay (ELISA); type: biochemical; details: mean ± SD of three replicates
T1 construct: The recombinant EGFR^wt-TK and Antiphosphotyrosine mouse mAb were purchased from PTM Bio; purchased PTM Bio
T1 sequence (P00533 25-1210): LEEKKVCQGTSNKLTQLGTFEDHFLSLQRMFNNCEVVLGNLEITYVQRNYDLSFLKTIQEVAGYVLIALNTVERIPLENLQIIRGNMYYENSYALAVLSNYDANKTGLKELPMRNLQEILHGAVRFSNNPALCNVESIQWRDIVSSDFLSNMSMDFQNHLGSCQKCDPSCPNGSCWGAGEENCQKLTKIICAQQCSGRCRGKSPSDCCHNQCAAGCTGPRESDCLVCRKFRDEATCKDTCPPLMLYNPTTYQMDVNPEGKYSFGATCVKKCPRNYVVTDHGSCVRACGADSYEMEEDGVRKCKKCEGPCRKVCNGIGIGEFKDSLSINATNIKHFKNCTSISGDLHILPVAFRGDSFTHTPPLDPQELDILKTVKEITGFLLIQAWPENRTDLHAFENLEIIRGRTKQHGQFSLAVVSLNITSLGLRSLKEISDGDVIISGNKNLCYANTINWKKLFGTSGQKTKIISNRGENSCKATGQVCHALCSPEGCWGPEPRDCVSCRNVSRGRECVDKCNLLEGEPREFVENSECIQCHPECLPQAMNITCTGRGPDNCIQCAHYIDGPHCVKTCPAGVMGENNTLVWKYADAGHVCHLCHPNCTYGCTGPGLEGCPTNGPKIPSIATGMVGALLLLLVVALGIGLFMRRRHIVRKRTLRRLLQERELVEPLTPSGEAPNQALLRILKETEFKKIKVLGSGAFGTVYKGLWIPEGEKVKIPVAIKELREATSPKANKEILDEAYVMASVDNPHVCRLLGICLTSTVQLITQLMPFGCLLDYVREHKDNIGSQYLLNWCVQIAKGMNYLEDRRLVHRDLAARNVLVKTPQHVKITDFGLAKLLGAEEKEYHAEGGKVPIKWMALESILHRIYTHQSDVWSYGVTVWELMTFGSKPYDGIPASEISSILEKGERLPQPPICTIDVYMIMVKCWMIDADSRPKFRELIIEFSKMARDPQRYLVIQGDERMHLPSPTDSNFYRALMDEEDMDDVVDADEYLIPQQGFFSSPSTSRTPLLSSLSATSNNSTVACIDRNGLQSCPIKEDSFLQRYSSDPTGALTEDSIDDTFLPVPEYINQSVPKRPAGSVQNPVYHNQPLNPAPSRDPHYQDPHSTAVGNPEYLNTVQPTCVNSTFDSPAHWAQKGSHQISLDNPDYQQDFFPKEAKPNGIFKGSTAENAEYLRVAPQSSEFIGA
Description: Enzymatic inhibition of synthesised compounds against wild type EGFR tyrosine kinase was determined with enzyme-linked immunosorbent assays (ELISAs) as our previous methods. The recombinant EGFR^wt-TK and Antiphosphotyrosine mouse mAb were purchased from PTM Bio. The IC50 value was determined from a sigmoid dose − response curve using Graph-Pad Prism (GraphPad Software, San Diego, CA).

MCF-7 cells [3] = assay: Cell apoptosis analysis (Annexin V-FITC/PI flow cytometry); type: cell-based, human; details: MCF-7, 5 μM, 48 h
MCF-7 cells [4] = assay: Cell cycle analysis (flow cytometry); type: cell-based, human; details: MCF-7, 5 μM, 48 h

`Cn1c(COc2ccc(/C=N/c3cccc(F)c3)cc2)nc2ccccc2c1=O` [A, reference compound] gave an IC50 (MCF-7 cells [1]) of 14.1 ± 1.85 µM, an IC50 (NCI-H1975 cells) of 19.2 ± 3.02 µM and an IC50 (A431 cells; Homo sapiens, A-431, MTT) of 17.7 ± 2.08 µM. For the same compound, the “stability in mice plasma” value ([2]; SD mice plasma) was “not stable” and the IC50 (A549 cells) was 17.9 ± 2.11 µM.
For `Cn1c(COc2ccc(/C=C/C(=O)c3cccc(F)c3)cc2)nc2ccccc2c1=O` [Compound 4a, (E)-2-((4–(3-(3-Fluorophenyl)-3-oxoprop-1-enyl)phenoxy)methyl)-3-methylquinazolin-4(3H)-one], the IC50 (MCF-7 cells [1]) was 10.6 ± 1.03 µM, the IC50 (NCI-H1975 cells) was 13.7 ± 1.61 µM and the melting point was 208 to 209 °C. The IC50 (A431 cells; Homo sapiens, A-431, MTT) was 9.32 ± 0.57 µM, the IC50 (A549 cells) was 8.63 ± 0.41 µM and the IC50 (EGFR^wt-TK) was 2.71 ± 0.22 µM.
In the case of `Cn1c(COc2ccc(C(=O)Nc3cccc(F)c3)cc2)nc2ccccc2c1=O` [Compound 4b, N-(3-Fluorophenyl)-4-((3-methyl-4-oxo-3,4-dihydroquinazolin-2-yl)methoxy)benzamide], the IC50 (MCF-7 cells [1]) is reported as 9.64 ± 0.88 µM, the IC50 (NCI-H1975 cells) is reported as 12.9 ± 1.44 µM and the melting point is reported as 196 to 197 °C. The IC50 (A431 cells; Homo sapiens, A-431, MTT) was 8.72 ± 0.46 µM, the IC50 (A549 cells) was 9.08 ± 0.69 µM and the IC50 (EGFR^wt-TK) was 1.63 ± 0.15 µM.
`Cn1c(COc2ccc(/C=C/c3cccc(F)c3)cc2)nc2ccccc2c1=O` [Compound 4c, (E)-2-((4-(3-Fluorostyryl)phenoxy)methyl)-3-methylquinazolin-4(3H)-one] gave an IC50 (MCF-7 cells [1]) of 6.04 ± 0.73 µM, an IC50 (NCI-H1975 cells) of 6.44 ± 0.85 µM and a melting point of 160 to 162 °C. For the same compound, the IC50 (A431 cells; Homo sapiens, A-431, MTT) was 6.79 ± 0.72 µM, the IC50 (A549 cells) was 4.26 ± 0.57 µM and the IC50 (EGFR^wt-TK) was 0.2 ± 0.041 µM.
In the case of `Cn1c(COc2ccc(NC(=O)c3cccc(F)c3)cc2)nc2ccccc2c1=O` [Compound 4d, 3-Fluoro-N-(4-((3-methyl-4-oxo-3,4-dihydroquinazolin-2-yl)methoxy)phenyl)benzamide], the IC50 (MCF-7 cells [1]) is reported as 0.87 ± 0.14 µM, the IC50 (NCI-H1975 cells) is reported as 6.42 ± 0.47 µM and the “ratio of apoptotic cells (late)” value (MCF-7 cells [3]) is reported as 41.36%. For the same compound, the melting point was 228 to 229 °C, the IC50 (A431 cells; Homo sapiens, A-431, MTT) was 3.48 ± 0.49 µM and the “percentage of cells in G2/M” value (MCF-7 cells [4]) was 10.38%. The “purity after incubation with mice plasma” value ([2]; Sprague Dawley (SD) mice plasma) was “higher than 98%”, the IC50 (A549 cells) was 2.55 ± 0.26 µM and the IC50 (EGFR^wt-TK) was 0.053 ± 0.008 µM.
In the case of `Cn1c(COc2ccc(NC(=O)c3ccc(F)c(F)c3)cc2)nc2ccccc2c1=O` [Compound 4e, 3,4-Difluoro-N-(4-((3-methyl-4-oxo-3,4-dihydroquinazolin-2-yl)methoxy)phenyl)benzamide], the IC50 (MCF-7 cells [1]) is reported as 0.96 ± 0.21 µM, the IC50 (NCI-H1975 cells) is reported as 7.18 ± 0.49 µM and the melting point is reported as 248 to 249 °C. It also gave an IC50 (A431 cells; Homo sapiens, A-431, MTT) of 3.53 ± 0.34 µM, an IC50 (A549 cells) of 2.69 ± 0.32 µM and an IC50 (EGFR^wt-TK) of 0.061 ± 0.007 µM.
Compound `Cn1c(COc2ccc(NC(=O)/C=C/c3ccc(F)c(F)c3)cc2)nc2ccccc2c1=O` [Compound 4f, (E)-3-(3,4-Difluorophenyl)-N-(4-((3-methyl-4-oxo-3,4-dihydroquinazolin-2-yl)methoxy)phenyl)acrylamide] has an IC50 (MCF-7 cells [1]) of 2.84 ± 0.22 µM, an IC50 (NCI-H1975 cells) of 9.33 ± 0.78 µM and a melting point of 235 to 236 °C. The IC50 (A431 cells; Homo sapiens, A-431, MTT) was 8.76 ± 0.74 µM, the IC50 (A549 cells) was 8.46 ± 0.67 µM and the IC50 (EGFR^wt-TK) was 0.38 ± 0.075 µM.
`Cn1c(COc2ccc(NC(=O)Nc3cccc(F)c3)cc2)nc2ccccc2c1=O` [Compound 4g, 1-(3-Fluorophenyl)-3-(4-((3-methyl-4-oxo-3,4-dihydroquinazolin-2-yl)methoxy)phenyl)urea] gave an IC50 (MCF-7 cells [1]) of 10.7 ± 2.07 µM, an IC50 (NCI-H1975 cells) of 10.2 ± 1.03 µM and a melting point of 195 to 196 °C. The IC50 (A431 cells; Homo sapiens, A-431, MTT) was 8.34 µM, the IC50 (A431 cells; MTT) was 8.35 ± 0.46 µM and the IC50 (A549 cells) was 7.31 ± 0.59 µM. For the same compound, the IC50 (EGFR^wt-TK) was 0.71 ± 0.093 µM.
For `COc1cc2ncnc(Nc3ccc(F)c(Cl)c3)c2cc1OCCCN1CCOCC1` [Gefitinib, reference compound], the “percentage of cells in G2/M” value (MCF-7 cells [4]) was 11.58%.
